Measured values reported in patent US6583143B2, “CRF receptor antagonists and methods relating thereto” (Neurocrine Biosciences, Inc., priority 2000, dated 2003).

Biological target: T1, human CRF receptors (Homo sapiens, UniProt P34998)
T1 construct: expressed in transfected cells; membrane suspension of stably transfected cells
T1 sequence (P34998 24-415): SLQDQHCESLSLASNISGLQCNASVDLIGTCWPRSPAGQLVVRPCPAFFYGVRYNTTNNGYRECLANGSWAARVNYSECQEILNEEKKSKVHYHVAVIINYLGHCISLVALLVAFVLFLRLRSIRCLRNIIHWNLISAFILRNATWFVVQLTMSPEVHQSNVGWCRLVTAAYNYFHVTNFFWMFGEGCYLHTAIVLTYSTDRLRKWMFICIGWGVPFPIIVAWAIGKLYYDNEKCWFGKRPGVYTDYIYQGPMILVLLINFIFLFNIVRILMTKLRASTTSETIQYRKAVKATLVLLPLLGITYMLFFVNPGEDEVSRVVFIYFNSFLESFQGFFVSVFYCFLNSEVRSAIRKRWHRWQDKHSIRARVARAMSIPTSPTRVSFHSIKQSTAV
Assay: CRF receptor radioligand binding assay (displacement of [125I]tyrosine-ovine CRF)
Settings: CRF receptor binding affinity, assayed by the methods of Example 9
Source text: The effectiveness of a compound as a CRF receptor antagonist may be determined by various assay methods. Suitable CRF antagonists of this invention are capable of inhibiting the specific binding of CRF to its receptor and antagonizing activities associated with CRF. A compound of structure (I) may be assessed for activity as a CRF antagonist by one or more generally accepted assays for this purpose, including (but not limited to) the assays disclosed by DeSouza et al. (J. Neuroscience 7:88, 1987) and Battaglia et al. (Synapse 1:572, 1987). […] CRF receptor affinity may be determined by binding studies that measure the ability of a compound to inhibit the binding of a radiolabeled CRF (e.g., [^125I]tyrosine-CRF) to its receptor (e.g., receptors prepared from rat cerebral cortex membranes). […]
The compounds of this invention may be evaluated for binding activity to the CRF receptor by a standard radioligand binding assay as generally described by DeSouza et al. (J. Neurosci. 7:88-100, 1987). […]
More specifically, the binding assay is performed in 1.5 ml Eppendorf tubes using approximately 1×10^6 cells per tube stably transfected with human CRF receptors. […] Following two washes of the pellets, the tubes are cut just above the pellet and monitored in a gamma counter for radioactivity at approximately 80% efficiency. […]

Ki: < 100 nM
Compound: CCCC(CCC)N1N=C(C)n2nc(-c3ccc(OC)cc3C)c3nc(C)cc1c32 [Compound 8-3]
